Measured values as given in patent publication US10966995B2, “Use of secoisolariciresinol diglucosides (SDGS) and related compounds for protection against radiation and chemical damage” (THE TRUSTEES OF THE UNIVERSITY OF PENNSYLVANIA, priority 2014, dated 2021).
pEC50: −log10 of the molar value.

How the values were obtained:
[1] = tested on: calf thymus DNA; assay: Radiation-induced calf thymus DNA fragmentation assay; format: biochemical; conditions: for Radioprotective properties of SDG and metabolites compared / Radioprotection in calf thymus DNA fragmentation assay at low concentrations / High mol. wt. DNA form after radiation exposure: 50 Gy; for Radioprotective properties of SDG and metabolites compared: 10 μM of each agent; for Radioprotection in calf thymus DNA fragmentation assay at low concentrations: 0.5-10 μM; for High mol. wt. DNA form after radiation exposure: 25, 50, 100 and 250 μM; for Radiation-induced generation of low mol. wt. fragments: at the concentration of 5 (unit not given); for Radiation induced generation of low mol. wt. fragments: at the lowest concentration tested
Protocol: (§1) Plasmid DNA (pBR322) or calf thymus DNA samples with or without varying concentrations of SDG (R,R), SDG (S,S) and SDG (commercial) were exposed to γ-radiation with a Mark 1 cesium (Cs-137) irradiator (J. L. Shepherd, San Fernando, Calif.) at a dose rate of 1.7 Gy/min in phosphate buffered saline, pH 7.4 (PBS).
The effect of test compounds on radiation-induced strand breaks in DNA was determined using calf thymus DNA (Sigma, St. Louis, Mo.). DNA (500 ng) in PBS (pH 7.4) was mixed with varying concentrations (25-250 μM) of SDG (R,R), SDG (S,S) and SDG (commercial) and irradiated at 50 Gy for 30 min. A second series of experiments were performed at varying concentrations ranging from 0.5-10 μM. Samples were mixed with loading dye and subjected to agarose (1%) gel electrophoresis in TAE buffer (pH, 8.3) at 100 V. The gel was stained with ethidium bromide (0.5 μg/ml) for 40 min, washed for 20 min and then visualized on a UV trans-illuminator (Bio-Rad, Hercules, Calif.). The captured gel images were scanned and the density of the calf thymus DNA fragments was determined by Gel-Pro image analyzer program (Media Cybernetics, Silver Spring, Md.). The density of the low mol. wt (<6,000 bps) and the high mol. wt (>6,000 bps) fragments of calf thymus DNA was expressed as % of the total density (low mol wt.+high mol. wt.).

[2] = tested on: human epithelial cells; assay: BaP-induced DNA adduct formation; format: cell-based; conditions: given alone or in combination
Description: Similarly, SDG prevents genotoxic stress in human epithelial cells exposed to BaP. Exposure of cells to a potent carcinogen such as BaP, induces genotoxic stress as indicated by increased levels of p53 protein (FIG. 25). […] SDG also prevents oxidative DNA damages in human epithelial cells exposed to BaP. Exposure of cells to a potent carcinogen such as BaP, induces oxidative DNA damage as indicated by increased levels of gamma-H2AX, a marker for double-stranded DNA breaks (FIG. 26). […] Furthermore, SDG prevents DNA adduct formation in human epithelial cells exposed to BaP. Exposure of cells to a potent carcinogen such as BaP, induces the formation of DNA adducts (FIG. 27). DNA adducts are pieces of DNA covalently linked to a carcinogen and is directly linked to the development of malignancy. The DNA adduct levels is decreased by the presence of SDG or its metabolites ED and EL given alone or in combination.

[3] = tested on: Plasmid DNA (pBR322); assay: Plasmid DNA relaxation assay after γ-radiation; format: biochemical; conditions: for pEC50: 25 Gy γ radiation, 25-250 μM tested, read-out: EC50 (effective concentration needed to prevent 50% of plasmid relaxation); for SC and OC forms of plasmid DNA: 25 Gy, 25, 50, 100 and 250 μM
Protocol: as §1
The effect of test compounds on radiation-induced strand breaks and supercoil (SC) to open coil (OC) conversion was determined using plasmid DNA (pBR322) (Life Technologies, Carlsbad, Calif.). Plasmid DNA (500 ng) in PBS (pH 7.4) was mixed with various concentrations (25-250 μM) of SDG (R,R), SDG (S,S) and SDG (commercial) and irradiated at 25 Gy in PBS. At 30 min post radiation exposure, samples were mixed with loading dye and subjected to agarose (1%) gel electrophoresis in TAE buffer (pH, 8.3) at 100 V. The gel was stained with ethidium bromide (0.5 μg/ml) for 40 min, washed for 20 min and then visualized on a UV trans-illuminator (Bio-Rad, Hercules, Calif.). The captured gel images were scanned and the density of the open coiled (OC) and super coiled (SC) plasmid DNA bands determined by Gel-doc image analyzer program. The density of the SC and OC plasmid DNA was expressed as % of the total density (OC+SC).

[4] = Hypochlorite scavenging with APF/HPF fluorescent probes (sodium hypochlorite); conditions: 0.5 μM; similar to silibinin
Protocol: The fluorescence of ROS probes APF and HPF in PBS was measured at excitation/emission at 490 nm/515 nm in presence of hypochlorite or after γ-radiation exposure. Data is expressed as relative fluorescence units (RFU).

[5] = tested on: calf thymus DNA; assay: Hypochlorite-induced damage to calf thymus DNA; format: biochemical; conditions: 0.5 mM hypochlorite; test agents 1.0 μM
Protocol: Calf thymus or plasmid DNA was incubated with hypochlorite for 2 hrs at 37° C. DNA samples were subjected to agarose (1%) gel electrophoresis and analyzed.

| SMILES | Radioprotective properties of SDG and metabolites compared [1] | pEC50 [3] | High mol. wt. DNA form after radiation exposure [1] | ClO^− scavenging potency [4] | other results |
| --- | --- | --- | --- | --- | --- |
| COc1cc(CC(CO)C(CO)Cc2ccc(O)c(OC)c2)ccc1O (centres unmarked) [SECO, 2,3-bis (3-methoxy-4-hydroxybenzyl) butane-1,4-diol] | equipotent | – | – | – | – |
| O=C1OC[C@H](Cc2cccc(O)c2)[C@H]1Cc1cccc(O)c1 [EL, enterolactone] | equipotent | – | – | – | DNA adduct levels [2]: decreased |
| COc1cc(C[C@@H](CO[C@@H]2O[C@H](CO)[C@@H](O)[C@H](O)[C@H]2O)[C@H](CO[C@@H]2O[C@H](CO)[C@@H](O)[C@H](O)[C@H]2O)Cc2ccc(O)c(OC)c2)ccc1O [SDG (R,R), secoisolariciresinol diglucoside] | – | 3.89 | radioprotective properties | comparable potency | SC and OC forms of plasmid DNA [3]: prevented the radiation-induced damage to plasmid DNA in a concentration-dependent manner; Radioprotection in calf thymus DNA fragmentation assay at low concentrations [1]: strong radioprotection characteristics even at low concentrations; Radiation-induced generation of low mol. wt. fragments [1]: completely prevented; Radiation induced generation of low mol. wt. fragments [1]: completely prevented |
| O=c1c(O)c(-c2ccc(O)c(O)c2)oc2cc(O)cc(O)c12 [quercetin] | – | – | – | – | Hypochlorite-induced damage to genomic DNA [5]: comparable |
| OC[C@H](Cc1cccc(O)c1)[C@H](CO)Cc1cccc(O)c1 [ED, enterodiol] | equipotent | – | – | – | DNA adduct levels [2]: decreased |
| COc1cc(C[C@H](CO[C@@H]2O[C@H](CO)[C@@H](O)[C@H](O)[C@H]2O)[C@@H](CO[C@@H]2O[C@H](CO)[C@@H](O)[C@H](O)[C@H]2O)Cc2ccc(O)c(OC)c2)ccc1O [SDG (S,S), secoisolariciresinol diglucoside] | – | 3.85 | the proportion of the high mol. wt. DNA form increased significantly | comparable potency | SC and OC forms of plasmid DNA [3]: the proportion of the SC form increased and the density of OC form decreased significantly; Radioprotection in calf thymus DNA fragmentation assay at low concentrations [1]: strong radioprotection characteristics even at low concentrations; Radiation-induced generation of low mol. wt. fragments [1]: completely prevented; Radiation induced generation of low mol. wt. fragments [1]: completely prevented |
| COc1cc(C[C@@H](CO[C@@H]2O[C@H](CO)[C@@H](O)[C@H](O)[C@H]2O)[C@H](CO[C@@H]2O[C@H](CO)[C@@H](O)[C@H](O)[C@H]2O)Cc2ccc(O)c(OC)c2)ccc1O [SDG (commercial), Secoisolariciresinol Diglucoside] | – | 4.01 | radioprotective properties | comparable potency | – |
